# From US5101059A, “Amino acid protecting groups” (Research Corporation Technologies, Inc., priority 1989, dated 1992)
# Tests used:
# Assay type in all cases: physicochemical
# [1] = Solubility of TMS-Fmoc and dichloro-Xmoc derivatives versus Fmoc analogs
# Protocol: This latter property is particularly important when peptide synthesis is carried out in solution.
# [2] = General statements on cleavage by piperidine or fluoride ion
# [3] = Base deblocking and stability of 9-xanthenylmethyl and 9,10-dihydro-9-anthracenylmethyl derivatives; settings: room temperature; for time for evidence for initiation of the deblocking: piperidine 100 eq.; for time for evidence for initiation of the deblocking / time needed to complete the deblocking: DMF; for time needed to complete the deblocking: DBU 100 eq.
# Protocol: 1. Deblocking of Xmoc-PCA in 1,5,9-Triazabicyclo[4,4,0]dec-5-ene Solution: To a solution of 7.90 mg (0.0216 mmol) of Xmoc-PCA in 0.6 mL of pyridine was added 0.15 g (1.078 mmol 50 eq.) of 1,5,9-triazabicyclo[4,4,0]dec-5-ene (TBD). The mixture was stirred at room temperature and monitored by TLC with an eluant consisting of Skelly B--EtOAc (3:1). Complete deblocking had occurred after 25 minutes.
# 2. Base Deblocking of 9-Xanthenylmethyl Phenylacetate: a. In Piperdine Solution: To a solution of 13.39 mg of 9-XM-phenylacetate in 1.6 mL of DMF was added 0.4 mL (100 eq.) of piperidine. The mixture was stirred at room temperature. […] In DBU Solution: To a solution of 6.36 mg of 9-XM-phenylacetate in 0.9 mL of DMF was added 0.3 mL of 1,8-diazabicyclo[5,4,0]-undec-7-ene (DBU) (100 eq.). The mixture was stirred at room temperature. […] In TBD Solution: To a solution of 7.91 mg of 9-XM-phenylacetate in 0.3 mL of pyridine was added 100 mg (30 eq.) of 1,5,9-triazabicyclo[4,4,0]dec-5-ene. The mixture was stirred at room temperature.
# 1. General Procedure for Studying the Stabilities of DHAmoc-PCA, Xmoc-PCA, and DC-Xmoc-PCA in Piperidine Solution To a solution of urethane (0.0294 mmol) in 1.2 mL of DMF was added 0.3 mL (2.94 mmol, 100 eq.) of piperidine. The mixture was stirred at room temperature and monitored by TLC with an eluant consisting of Skelly B--EtOAc (3:1). Evidence for initiation of the deblocking required 2 minutes for DC-Xmoc-PCA, 3.5 hours for Xmoc-PCA, and 7 hours for DHAmoc-PCA.
# 2. General Procedure for Studying the Deblocking of Xmoc-PCA and DHAmoc-PCA in DBU Solution: To a solution of urethane (0.0324 mmol) in 0.5 mL of DMF was added 0.5 mL (3.24 mmol, 100 eq.) of 1,8-diazabicyclo[5,4,0]undec-7-ene. The mixture was stirred at room temperature and monitored by TLC with the eluant consisting of Skelly B--EtOAc (3:1). The time needed to complete the deblocking was 3.5 hours for Xmoc-PCA, and 6 hours for DHAmoc-PCA.
# [4] = Base deblocking of R-Fmoc-aniline by various amines; settings: for Time for Complete Deblocking / Time for Complete Scavenging of Dibenzofulvene: room temperature
# Protocol: 2. General Procedure for Studying the Base Deblocking of the Urethanes R-Fmoc-aniline (R=TMS, DMPS, DPMS, DT-TMS, TIPS): A solution of urethane (0.05 mmol) in a sample of redistilled base (5 mmol, 100 eq.) was allowed to stand at room temperature. The reaction was monitored periodically by TLC with an eluant consisting of Skelly B--CH2 Cl2 (1:1). No reaction occurred according to the TLC test for urethanes having R=TIPS in the case of any of the bases tested after 24 hours.
# [5] = Deblocking of R-Fmoc-aniline by fluoride ion; settings: tetra-n-butylammonium chloride 3.0 eq., KF dihydrate 4.1 eq., acetonitrile, room temperature
# Protocol: 3. General Procedure for Studying the Deblocking of Urethanes R-Fmoc-aniline (R=TMS, DMPS, DPMS, TIPS, DT-TMS) by Reaction with Fluoride Ion: To a solution of urethane (0.0513 mmol) in 0.7 mL of acetonitrile was added 45 mg (0.154 mmol, 3.0 eq.) of tetra-n-butyl-ammonium chloride and 20 mg (0.213 mmol, 4.1 eq.) of potassium fluoride dihydrate. The mixture was stirred at room temperature, the reaction being monitored by TLC with an eluant consisting of Skelly B--CH2 Cl2 (1:1).
# [6] = Deblocking of R-Fmoc-aniline by trifluoroacetic acid; settings: room temperature
# Excerpt: 1. General Procedure for Studying the stability of R-Fmoc-analine (R=TMS, DMPS, DPMS, DT-TMS, TIPS) in Trifluoroacetic Acid: To a solution of urethane (0.026 mmol) in […].) of trifluoroacetic acid. The mixture was stirred at room temperature and the course of the reaction was monitored by TLC with an eluant consisting of Skelly B--dichloromethane (1:1) to note the time needed for complete deblocking of the urethanes.
# [7] = Base deblocking of substituted urethanes (U-PCA) by various amines; settings: dichloromethane, room temperature
# Excerpt: 1. General Procedure for Studying the Base Deblocking of the Urethanes Fmoc-PCA, BTS-Fmoc-PCA, DT-Fmoc-PCA, and TMS-Fmoc-PCA: A mixture of urethane (0.05 mmol) in a solution prepared from an equal volume of base (2.5 mmol, 50 eq.) and dichloromethane was stirred at room temperature. The course of the reaction was monitored by TLC with an eluant consisting of Skelly B--ether (3:1).
# [8] = Base deblocking of FM-Fmoc-PCA; settings: room temperature
# Protocol: A. Base Deblocking of FM-Fmoc-PCA: 1. In Piperidine Solution: To a solution of 24.96 mg of FM-Fmoc-PCA in 0.5 mL of DMF was added 0.5 mL (100 eq.) of piperidine. The mixture was stirred at room temperature. […] 2. In DBN Solution: To a solution of 12.81 mg of FM-Fmoc-PCA in 0.15 mL of DMF was added 0.15 mL (50 eq.) of 1,5-diazabicyclo[4,3,0]nonene-7 (DBN). The mixture was stirred at room temperature. […] 3. In DBU Solution: To a solution of 10.58 mg of FM-Fmoc-PCA in 0.15 mL of DMF was added 0.15 mL (50 eq.) of 1,8-diazabicyclo[5,4,0]undec-7-ene (DBU). The mixture was stirred at room temperature. […] 4. In TBD: To a solution of 18.95 mg of FM-Fmoc-PCA in 0.2 mL of DMF and 0.2 mL of pyridine was added 100 mg (20 eq.) of 1,5,9-triazabicyclo[4,4,0]dec-5-ene (TBD). The mixture was stirred at room temperature.
# [9] = morpholine 50 eq., significant aminodibenzofulvene type adduct formed
# [10] = piperidine 50 eq., significant aminodibenzofulvene type adduct formed
smiles,measurement,setting,value
"O=C(Nc1ccc(Cl)cc1)OCC1c2cc(Cl)ccc2Oc2ccc(Cl)cc21 [2,7-dichloro analog of Xmoc]",solubility compared with Fmoc derivatives,[1],greater solubility than Fmoc derivatives
same,deblocking by / stability to piperidine,[2],deblocked by piperidine as easily as the Fmoc group
"O=C(Nc1ccc(Cl)cc1)OCC1c2cc(Cl)ccc2Oc2ccc(Cl)cc21 [DC-Xmoc-PCA, 2,7-Dichloro-9-xanthenylmethyl p-Chlorocarbanilate]",time for evidence for initiation of the deblocking,[3],0.033 h
"O=C(Nc1ccc(Cl)cc1)OCC1c2ccccc2Cc2ccccc21 [DHAmoc-PCA, 3,10-Dihydro-9-anthracenylmethyl p-Chlorocarbanilate]",time needed to complete the deblocking,[3],6 h
same,time for evidence for initiation of the deblocking,[3],7 h
"C[Si](C)(c1ccccc1)C1(COC(=O)Nc2ccccc2)c2ccccc2-c2ccccc21 [DMPS, 9-Dimethyl(phenyl)silyl-9-fluorenylmethyl Carbanilate]",Time for Complete Deblocking,[4]; morpholine 100 eq.,0.783 h
same,Time for Complete Scavenging of Dibenzofulvene,[4]; morpholine 100 eq.,60 min
same,Time for Complete Deblocking,[4]; piperidine 100 eq.,0.667 h
same,Time for Complete Scavenging of Dibenzofulvene,[4]; piperidine 100 eq.,220 min
same,Time for Complete Deblocking,[4]; t-butylamine 100 eq.,3.5 h
same,Time for Complete Deblocking by Fluoride Ion,[5],< 2 min
same,Time for Complete Deblocking by Trifluoroacetic Acid,[6],8 h
"C[Si](c1ccccc1)(c1ccccc1)C1(COC(=O)Nc2ccccc2)c2ccccc2-c2ccccc21 [DPMS, 9-Diphenyl(methyl)silyl-9-fluoroenylmethyl Carbanilate]",Time for Complete Deblocking,[4]; morpholine 100 eq.,0.583 h
same,Time for Complete Scavenging of Dibenzofulvene,[4]; morpholine 100 eq.,51 min
same,Time for Complete Deblocking,[4]; piperidine 100 eq.,0.467 h
same,Time for Complete Scavenging of Dibenzofulvene,[4]; piperidine 100 eq.,150 min
same,Time for Complete Deblocking,[4]; t-butylamine 100 eq.,1.5 h
same,Time for Complete Deblocking by Fluoride Ion,[5],< 2 min
same,Time for Complete Deblocking by Trifluoroacetic Acid,[6],18 h
"CC(C)(C)c1ccc2c(c1)C(COC(=O)Nc1ccc(Cl)cc1)c1cc(C(C)(C)C)ccc1-2 [DT-Fmoc-PCA, 2,7-Di-tert-butyl-9-Fluorenylmethyl p-Chlorocarbanilate]",Time for Complete Deblocking,[7]; ethanolamine 50 eq.,4 h
same,Time for Complete Scavenging of Dibenzofulvene Analogs,[7]; morpholine 50 eq.,13 hr
same,Time for Complete Deblocking,[7]; [9],10 h
same,Time for Complete Scavenging of Dibenzofulvene Analogs,[7]; piperidine 50 eq.,84 min
same,Time for Complete Deblocking,[7]; [10],0.2 h
same,Time for Complete Deblocking,[7]; t-butylamine 50 eq.,10 h
"CC(C)(C)c1ccc2c(c1)C(COC(=O)Nc1ccccc1)([Si](C)(C)C)c1cc(C(C)(C)C)ccc1-2 [DT-TMS, 2,7-Di-tert-butyl-9-trimethylsilyl-9-fluorenylmethyl Carbanilate]",Time for Complete Deblocking,[4]; morpholine 100 eq.,16 h
same,Time for Complete Scavenging of Dibenzofulvene,[4]; morpholine 100 eq.,1020 min
same,Time for Complete Deblocking,[4]; piperidine 100 eq.,13 h
same,Time for Complete Scavenging of Dibenzofulvene,[4]; piperidine 100 eq.,1080 min
same,Time for Complete Deblocking,[4]; t-butylamine 100 eq.,> 24 h
same,Time for Complete Deblocking by Fluoride Ion,[5],10 min
same,Time for Complete Deblocking by Trifluoroacetic Acid,[6],0.833 h
C[Si](C)(C)C1(COC(=O)Nc2ccc(Cl)cc2)c2ccccc2-c2ccccc21 [Example 9-TMS-Fmoc],solubility compared with ordinary Fmoc analogs,[1]; in non-polar solvents,enormously more soluble in non-polar solvents than ordinary Fmoc analogs
same,deblocking by / stability to piperidine,[2],"deblocked by piperidine, although somewhat more slowly than the Fmoc group itself"
"O=C(Nc1ccc(Cl)cc1)OCC1(CC2c3ccccc3-c3ccccc32)c2ccccc2-c2ccccc21 [FM-Fmoc-PCA, 9-(9'-Fluorenylmethyl)-9-fluorenylmethyl p-Chlorocarbanilate]",time at which deblocking had begun,"[8]; DBN 50 eq., DMF",≤ 10 min
same,Time for Complete Deblocking,"[8]; DBN 50 eq., DMF, still not complete",> 24 h
same,Time for Complete Deblocking,"[8]; DBU 50 eq., DMF",12 h
same,time at which deblocking had begun,"[8]; DBU 50 eq., DMF",≤ 10 min
same,start of deblocking,"[8]; TBD 20 eq., DMF and pyridine",immediately
same,time for complete deblocking-scavenging reaction,"[8]; TBD 20 eq., DMF and pyridine",1 h
same,time at which first deblocking was detected,"[8]; piperidine 100 eq., DMF",12 h
"O=C(Nc1ccc(Cl)cc1)OCC1c2ccccc2-c2ccccc21 [Fmoc-PCA, 9-fluorenylmethyl p-chlorocarbanilate, reference compound]",Time for Complete Deblocking,[7]; ethanolamine 50 eq.,0.75 h
same,Time for Complete Scavenging of Dibenzofulvene Analogs,[7]; morpholine 50 eq.,2.5 hr
same,Time for Complete Deblocking,[7]; [9],1.25 h
same,Time for Complete Scavenging of Dibenzofulvene Analogs,[7]; piperidine 50 eq.,68 min
same,Time for Complete Deblocking,[7]; [10],< 0.05 h
same,Time for Complete Deblocking,[7]; t-butylamine 50 eq.,5 h
"CC(C)[Si](C(C)C)(C(C)C)C1(COC(=O)Nc2ccccc2)c2ccccc2-c2ccccc21 [TIPS, 9-Triisopropylsilyl-9-fluorenylmethyl Carbanilate]",reaction with amine bases (TLC),"[4]; any of the bases tested, 100 eq., 24 hours",no reaction was detected
same,Time for Complete Deblocking by Fluoride Ion,[5],1080 min
same,Time for Complete Deblocking by Trifluoroacetic Acid,[6],0.567 h
"O=C(Nc1ccc(Cl)cc1)OCC1c2ccccc2Oc2ccccc21 [Xmoc-PCA, 9-Xanthenylmethyl p-Chlorocarbanilate]",time needed to complete the deblocking,[3],3.5 h
same,Time for Complete Deblocking,"[3]; TBD 50 eq., pyridine",25 min
same,time for evidence for initiation of the deblocking,[3],3.5 h
O=C(Nc1ccc(Cl)cc1)OCC1c2ccccc2Oc2ccccc21 [Xmoc],deblocking by / stability to piperidine,[2],stable to piperidine
CC(C)[Si](C(C)C)(C(C)C)C1(COC(=O)Nc2ccccc2)c2ccccc2-c2ccccc21 [derivative F],cleavage by fluoride ion,"[2]; inorganic base, fluoride ion","cleaved by the inorganic base, fluoride ion"
same,deblocking by / stability to piperidine,[2],stable to piperidine
